Laboratory results: patent publication US5552156A, “Liposomal and micellular stabilization of camptothecin drugs” (Ohio State University, priority 1995, dated 1996)

Key:
Type in all cases: physicochemical
[1] = Overall association constant by fluorescence anisotropy titration, DMPC liposomes; conditions: DMPC, pH 3.0
[2] = Steady-state fluorescence anisotropy in solvents and liposomes; conditions: pH 3, 37° C.
Experimental: (§1) Steady-state fluorescence measurements were obtained on a SLM Model 4800C. spectrofluorometer with a thermostated cuvette compartment. This instrument was interfaced with an IBM PS/2 model 55 SX computer. Excitation and emission spectra were recorded with an excitation resolution of 8 nm and an emission resolution of 4 nm. In all cases spectra were corrected for background fluorescence and scatter from unlabeled lipids or from solvents by subtraction of the spectrum of a blank. Steady-state fluorescence intensity measurements were made in the absence of polarizer. Steady-state anisotropy (a) measurements were determined with the instrument in the "T-format" for simultaneous measurement of two polarized intensities. The alignment of polarizers were checked routinely using a dilute suspension of 0.25 μm polystyrene microspheres from Polysciences, Inc, Warrington, Pa., in water; anisotropy values of >0.99 were obtained. The anisotropy was calculated from a=(Ivv -GlVH)/(Ivv +GIVH), where G-IVH /IHH and the subscripts refer to vertical and horizontal orientations of the excitation and emission polarizers, respectively.
(§2) Anisotropy measurements for camptothecin, camptothecin carboxylate sodium salt, and 10,11-methylenedioxycamptothecin were conducted using exciting light of 370 nm and 420 nm long wave pass filters on each emission channel in order to isolate the fluorescence signal from background scatter and signal. For topotecan a 400 nm excitation wavelength and a 500 nm emission filter were used and for 9-aminocamptothecin a 375 nm excitation and a wavelength 420 nm emission filter were used. For AMC and CMC, a 370 nm excitation wavelength and a 400 nm emission filter were used. For 10-hydroxycamptothecin 375 nm excitation wavelength 500 nm emission filter was used. Emission filters were obtained from Oriel Corp. Stamford, Conn. The combination of exciting light and emission filters allows one to adequately separate the fluorescence from the background signal. The contribution of background fluorescence, together with scattered light, was typically less than 1% of the total intensity. Since the lactone ring of the camptothecin drug undergoes hydrolysis in aqueous medium, all measurements were completed within the shortest possible time, less than 1 minute after mixing the drug stock solution with PBS or the liposomes. In each case, analysis was initiated immediately after mixing the drug stock solution with PBS or with the liposomes. All measurements were performed at 37° C. unless otherwise noted.
While the spectral changes provide qualitative evidence that the camptothecin drugs bind the liposome membranes, fluorescence anisotropy titration, offers the most sensitive means for quantitatively assessing the extent of the binding. The fluorescence anisotropy titration was performed according to the method of Burke and Tritton, Biochemistry 24: 1768-1776 (1985).
A steady-state fluorescence anisotropy (a) measurement is related to the rotational rate of the fluorescent molecule through the Perrin Equation: […]
where a0 is the limiting fluorescence anisotropy value, that is, the anisotropy value in the absence of depolarizing rotations, T is the excited-state lifetime, and .phi. is the rotational correlative time of the fluorophore. According to Equation 1, changes in either the T or .phi. values of a fluorescent compound can modulate its steady-state anisotropy.
The limiting fluorescence anisotropy (a0) values were also measured. The maximum values of (a) were obtained by dissolving the camptothecin drugs in the viscous solvent glycerol and cooling the samples to low temperatures. Steady-stated anisotropy (a) values were determined for samples containing 1 μM drug at 37° C.
Where the solvent viscosity is high and temperature is low, depolarizing rotations are at a minimum. By extrapolating these (a) values to -25° C., the limiting anisotropy values (a0) for the camptothecin drugs, were determined. […]

[3] = HPLC assay of lactone ring hydrolysis, free in PBS or associated with liposomes or micelles
Experimental: A high performance liquid chromatography assay was used to determine the rate of hydrolysis of camptothecin and topotecan free in aqueous solution and to compare such rates with the rate of hydrolysis for the same drugs when bound to the DMPG and DMPC liposome membranes. The assay was conducted under near physiological conditions; the pH was 7.4, the temperature was 37° C. and the ionic strength was physiological. A Spectroflow model 980 fluorescence detector coupled to an HP 3392A integrator which acquired and processed the chromatograms, was used. For camptothecin, an Ultrasphere ODS C-18 250 mm long column was used. The mobile phase consisted of 32% acetonitrile, 67% 0.1M acetate buffer, pH 5.5, and 1% 01.M sodium dodecylsulfate at a flow rate of 1 mL/min. The detector was set to 370 nm excitation wavelength and a 418 nm long pass emission filter. A 1 μM solution of camptothecin in PBS was prepared and incubated at 37° C. Immediately after mixing the drug stock solution with PBS and at intervals of 5 min thereafter, 50 μL aliquots were taken out and mixed with 150 μL methanolic internal standard, 9-toluoylamidocamptothecin and either analyzed immediately or kept cold under dry ice. 150 μL of this mixture was diluted with 125 μL water and 200 μL was injected. The ratio of the peak areas corresponding to the intact lactone form of the camptothecin drug and the internal standard at a particular time was normalized to that at the time of mixing and was considered as the concentration of the intact lactone form.
For topotecan the excitation wavelength was 362 nm and the emission was observed through a 470 long wave pass filter. The stationary phase was Waters Nova-Pak C-18 150mm long column. The mobile phase consisted of 500 mL 0.1M KH2 PO4, 550 mL acetonitrile, 4.2 mL triethylamine (distilled over molecular sieves), 4.44 g sodium dioctylsulfosuccinate (DOSS), and 970 ml water. The pH was adjusted to 6.0 with H3 PO4. Internal standard solution contained 50×10^-9 g acridine from Eastman and 20×10^-3 M DOSS in methanol and was always kept cold at ≤-20° C. Next 150 μL or cold internal standard solution was mixed with 50 μL aliquot containing topotecan, centrifuged for 1 minute and the supernatant was either analyzed immediately or stored at -20° C. for analysis at a later time, within 2 hours. Samples were monitored at time points from 0 minutes, that is, immediately following dissolution, up to 72 hours.
The kinetics of lactone ring hydrolysis for free camptothecin, CMC and topotecan are shown in of FIGS. 7a, 7b and 7c. Analysis of the decay profile for camptothecin, CMC and topotecan free in PBS was accomplished using a nonlinear least squares program.

[4] = Fluorescence excitation and emission spectra of camptothecin drugs free in solution and bound to liposomes
Text: The camptothecin drugs are intrinsically intensely fluorescent. Fluorescence is associated with the extended conjugation of the quinoline ring system. The liposomes of Examples 1-7 were characterized for the presence of the camptothecin drugs, using excitation and emission spectrography, and fluorescence anisotropy.
as §1, §2
The relative fluorescence intensity of 1×10^-6 M of camptothecin free in PBS buffer at 37° C. is shown. The emission spectra of the camptothecin was recorded using exciting light of 370 nm.
An exciting light of 390 nm was used to record the emission spectra of topotecan. A decrease in the emission intensity is observed for topotecan associated with the DMPG liposome.
All spectra were recorded using camptothecin drug concentrations of 2
μM. The DMPC and DMPG concentrations were 0.29 M. Experiments were
conducted in PBS buffer at 37° C.
Also found in Table II is a relative index of the emission intensity levels from these camptothecin drugs in PBS at their respective excitation and emission λMAX.

overall association constant K, DMPC [1]: 25 M⁻¹
steady-state anisotropy (a), DMPC ([2]; DMPC liposomes): 0.190
steady-state anisotropy (a), PBS ([2]; PBS): 0.009
lactone hydrolysis when associated with liposomes ([3]; DMPC and DMPG liposomes): some hydrolysis occurred at 1 hour
C/L drug DMPC Lip. ([3]; DMPC liposomes, pH 7.4, 37° C.): 0.45
t1/2 drug DMPC Lip. ([3]; DMPC liposomes, pH 7.4, 37° C.): 56 min
C/L drug DMPG Lip. ([3]; DMPG liposomes, pH 7.4, 37° C.): 0.15
t1/2 drug DMPG Lip. ([3]; DMPG liposomes, pH 7.4, 37° C.): 49 min
lactone ring hydrolysis at 5 hours ([3]; DMPG or DMPC liposomes, 5 hours): ≤ 40%
carboxylate/lactone ratio (C/L) free drug ([3]; final equilibrium, free in PBS, pH 7.4, 37° C.): 6.0
t1/2 free drug ([3]; lactone hydrolysis, free in PBS, pH 7.4, 37° C.): 22.5 min
λMAX emission, DMPC ([4]; DMPC liposomes 0.29 M, pH 7.4, 37° C.): 442 nm
λMAX emission, DMPG ([4]; DMPG liposomes 0.29 M, pH 7.4, 37° C.): 436 nm
shift of emission maxima upon decrease of pH / protonation ([4]; free in PBS): about 25 nm
reduction in emission intensity levels relative to camptothecin ([4]; free in PBS, pH 7.4): 1000 -fold
λMAX emission, PBS ([4]; free in PBS, pH 7.4, 37° C.): 439 nm
Relative Fluorescence ([4]; in PBS, pH 7.4, at excitation and emission λMAX): 0.001
λMAX excitation ([4]; pH 3.0): 381 nm
spectral shift on association with DMPC liposomes, towards the blue region ([4]; pH 3.0, DMPC): 13 nm
λMAX emission, DMPC ([4]; pH 3.0, DMPC liposomes): 477 nm
Relative Fluorescence ([4]; pH 3.0, PBS): 0.001
λMAX emission, PBS ([4]; pH 3.0, free in PBS): 464 nm
λMAX excitation ([4]; pH 7.4, 2 μM drug, PBS, 37° C.): 381 nm
Compound: CCC1(O)C(=O)OCc2c1cc1n(c2=O)Cc2cc3c(N)cccc3nc2-1 (centres unmarked) [9-aminocamptothecin]
